Legend:
IL-4 = assay: T cell specific stimulation of PBMC (CD3/CD28 beads), IL-4 ELISA; type: cell-based, human; details: for IL-4 Conc: CD3/CD28 beads
Procedure: (§1) PBMC were isolated from blood of two healthy volunteers (person) via Ficoll density gradient centrifugation. The purified cells were used in parallel cultures for monocyte stimulations using Lipopolysaccharide (LPS) and T cell specific stimulations using bead-coupled antibodies directed against the T cell activation antigens CD3 and CD28.
(§2) Cultures were incubated in a tissue culture incubator at 37° C., 5% CO2 for 20 h, culture supernatants were harvested at the end of the culture period and used for cytokine quantitation. The measured cytokines in cell culture supernatants from either monocyte stimulation cultures (IL-8, IL-10, TNF-α) or T cell stimulation cultures (IL-2, IL-4) were quantitated with ELISAs (Becton Dickinson) according to the manufacturers instructions. The resulting optical density (OD) was measured on a Packard Fusion Reader and OD values were translated to cytokine concentrations (in pg/ml) with the use of the Fusion Reader Data Analysis Software.

TNF-alpha = assay: Monocyte stimulation cultures of PBMC (LPS or unstimulated), TNF-alpha ELISA; type: cell-based, human
Procedure: as §1, §2

IL-10 = assay: Monocyte stimulation cultures of PBMC (LPS or unstimulated), IL-10 ELISA; details: for IL-10 Conc: LPS 1 ng/ml

Substance: di-strontium-tetrakis-(mono methyl fumarate)-tetra hydrate [strontium MMF]
- IL-4 Conc (IL-4; 1 μM MMF, Donor 1): 60 pg/mL
- IL-4 Conc (IL-4; 1 μM MMF, Donor 2): 12 pg/mL
- IL-4 Conc (IL-4; 3 μM MMF, Donor 1): 70 pg/mL
- IL-4 Conc (IL-4; 3 μM MMF, Donor 2): 10 pg/mL
- IL-4 Conc (IL-4; 10 μM MMF, Donor 1): 69 pg/mL
- IL-4 Conc (IL-4; 10 μM MMF, Donor 2): 12 pg/mL
- IL-4 Conc (IL-4; 30 μM MMF, Donor 1): 92 pg/mL
- IL-4 Conc (IL-4; 30 μM MMF, Donor 2): 20 pg/mL
- IL-4 Conc (IL-4; 100 μM MMF, Donor 1): 3 pg/mL
- IL-4 Conc (IL-4; 100 μM MMF, Donor 2): 0 pg/mL
- IL-4 Conc (IL-4; 300 μM MMF, Donor 1): 0 pg/mL
- IL-4 Conc (IL-4; 300 μM MMF, Donor 2): 0 pg/mL
- IL-4 Conc (IL-4; 1 mM MMF, Donor 1): 0 pg/mL
- IL-4 Conc (IL-4; 1 mM MMF, Donor 2): 0 pg/mL
- IL-4 Conc (IL-4; 3 mM MMF, Donor 1): 0 pg/mL
- IL-4 Conc (IL-4; 3 mM MMF, Donor 2): 0 pg/mL
- effect on IL-4 secretion (IL-4; after T-cell stimulation): co-induction
- TNF-alpha Conc (TNF-alpha; LPS 1 ng/ml, 1 μM MMF, Donor 1): 464 pg/mL
- TNF-alpha Conc (TNF-alpha; LPS 1 ng/ml, 1 μM MMF, Donor 2): 459 pg/mL
- TNF-alpha Conc (TNF-alpha; LPS 1 ng/ml, 3 μM MMF, Donor 1): 631 pg/mL
- TNF-alpha Conc (TNF-alpha; LPS 1 ng/ml, 3 μM MMF, Donor 2): 650 pg/mL
- TNF-alpha Conc (TNF-alpha; LPS 1 ng/ml, 10 μM MMF, Donor 1): 1624 pg/mL
- TNF-alpha Conc (TNF-alpha; LPS 1 ng/ml, 10 μM MMF, Donor 2): 2559 pg/mL
- TNF-alpha Conc (TNF-alpha; LPS 1 ng/ml, 30 μM MMF, Donor 1): 1787 pg/mL
- TNF-alpha Conc (TNF-alpha; LPS 1 ng/ml, 30 μM MMF, Donor 2): 3289 pg/mL
- TNF-alpha Conc (TNF-alpha; LPS 1 ng/ml, 100 μM MMF, Donor 1): 250 pg/mL
- TNF-alpha Conc (TNF-alpha; LPS 1 ng/ml, 100 μM MMF, Donor 2): 711 pg/mL
- TNF-alpha Conc (TNF-alpha; LPS 1 ng/ml, 300 μM MMF, Donor 1): 20 pg/mL
- TNF-alpha Conc (TNF-alpha; LPS 1 ng/ml, 300 μM MMF, Donor 2): 96 pg/mL
- TNF-alpha Conc (TNF-alpha; LPS 1 ng/ml, 1 mM MMF, Donor 1): 0 pg/mL
- TNF-alpha Conc (TNF-alpha; LPS 1 ng/ml, 1 mM MMF, Donor 2): 11 pg/mL
- TNF-alpha Conc (TNF-alpha; LPS 1 ng/ml, 3 mM MMF, Donor 1): 0 pg/mL
- TNF-alpha Conc (TNF-alpha; LPS 1 ng/ml, 3 mM MMF, Donor 2): 0 pg/mL
- effect on TNF-alpha secretion (TNF-alpha; LPS-stimulated monocytes): co-stimulatory
- effect on TNF-alpha secretion (TNF-alpha; as single stimulant (unstimulated monocytes)): induced
- TNF-alpha Conc (TNF-alpha; no LPS printed for these rows, 1 μM MMF, Donor 1): 29 pg/mL
- TNF-alpha Conc (TNF-alpha; no LPS printed for these rows, 1 μM MMF, Donor 2): 13 pg/mL
- TNF-alpha Conc (TNF-alpha; no LPS printed for these rows, 3 μM MMF, Donor 1): 38 pg/mL
- TNF-alpha Conc (TNF-alpha; no LPS printed for these rows, 3 μM MMF, Donor 2): 10 pg/mL
- TNF-alpha Conc (TNF-alpha; no LPS printed for these rows, 10 μM MMF, Donor 1): 570 pg/mL
- TNF-alpha Conc (TNF-alpha; no LPS printed for these rows, 10 μM MMF, Donor 2): 47 pg/mL
- TNF-alpha Conc (TNF-alpha; no LPS printed for these rows, 30 μM MMF, Donor 1): 1343 pg/mL
- TNF-alpha Conc (TNF-alpha; no LPS printed for these rows, 30 μM MMF, Donor 2): 682 pg/mL
- TNF-alpha Conc (TNF-alpha; no LPS printed for these rows, 100 μM MMF, Donor 1): 313 pg/mL
- TNF-alpha Conc (TNF-alpha; no LPS printed for these rows, 100 μM MMF, Donor 2): 236 pg/mL
- TNF-alpha Conc (TNF-alpha; no LPS printed for these rows, 300 μM MMF, Donor 1): 3 pg/mL
- TNF-alpha Conc (TNF-alpha; no LPS printed for these rows, 300 μM MMF, Donor 2): 12 pg/mL
- TNF-alpha Conc (TNF-alpha; no LPS printed for these rows, 1 mM MMF, Donor 1): 0 pg/mL
- TNF-alpha Conc (TNF-alpha; no LPS printed for these rows, 1 mM MMF, Donor 2): 3 pg/mL
- TNF-alpha Conc (TNF-alpha; no LPS printed for these rows, 3 mM MMF, Donor 1): 0 pg/mL
- TNF-alpha Conc (TNF-alpha; no LPS printed for these rows, 3 mM MMF, Donor 2): 0 pg/mL
- IL-10 Conc (IL-10; 1 μM MMF, Donor 1): 11 pg/mL
- IL-10 Conc (IL-10; 1 μM MMF, Donor 2): 11 pg/mL
- IL-10 Conc (IL-10; 3 μM MMF, Donor 1): 13 pg/mL
- IL-10 Conc (IL-10; 3 μM MMF, Donor 2): 5 pg/mL
- IL-10 Conc (IL-10; 10 μM MMF, Donor 1): 106 pg/mL
- IL-10 Conc (IL-10; 10 μM MMF, Donor 2): 13 pg/mL
- IL-10 Conc (IL-10; 30 μM MMF, Donor 1): 62 pg/mL
- IL-10 Conc (IL-10; 30 μM MMF, Donor 2): 32 pg/mL
- IL-10 Conc (IL-10; 100 μM MMF, Donor 1): 7 pg/mL
- IL-10 Conc (IL-10; 100 μM MMF, Donor 2): 0 pg/mL
- IL-10 Conc (IL-10; 300 μM MMF, Donor 1): 0 pg/mL
- IL-10 Conc (IL-10; 300 μM MMF, Donor 2): 0 pg/mL
- IL-10 Conc (IL-10; 1 mM MMF, Donor 1): 2 pg/mL
- IL-10 Conc (IL-10; 1 mM MMF, Donor 2): 0 pg/mL
- IL-10 Conc (IL-10; 3 mM MMF, Donor 1): 1 pg/mL
- IL-10 Conc (IL-10; 3 mM MMF, Donor 2): 0 pg/mL
- effect on IL-10 secretion (IL-10; LPS-stimulated monocytes): co-induced

Reference: patent publication US20080004344A1, “Novel Salts of Fumaric Acid Monoalkylesters and Their Pharmaceutical Use” (ADITECH PHARMA AB, priority 2004, published 2008)
